A short description of series [1]: Photostability assessed after irradiation with 50 mW/cm^2 white light for 1 min. In kind it is ADME.
Series [2] is described as follows: Photostability assessed after irradiation with 50 mW/cm^2 white light for 3 mins. The series is classed as ADME. The conditions noted are these: 0.05 h.
The nature of series [3]: Photostability assessed after irradiation with 50 mW/cm^2 white light for 5 mins. In kind it is ADME.
Series [4] is described as follows: Photostability assessed after irradiation with 50 mW/cm^2 white light for 10 mins. In kind it is ADME.
A short description of series [5]: Photostability assessed after irradiation with 50 mW/cm^2 white light for 15 mins. In kind it is ADME. Conditions: 0.25 h.
Series [6] in a line: (§1) Phototoxicity against 50 mW/cm^2 white light irradiated Vero cells assessed as viable cells pretreated at 0.01 uM after 48 hrs by MTT assay. Conditions: chlorocebus sabaeus, Vero cells; read-out: Activity. The series is classed as cell-based. (Tetrazolium dyes change colour on reduction, which living cells bring about.)
Series [7] is described as follows: (§2) Phototoxicity against 50 mW/cm^2 white light irradiated Vero cells assessed as viable cells pretreated at 0.05 uM after 48 hrs by MTT assay. The series is classed as cell-based. The conditions noted are these: chlorocebus sabaeus, Vero cells; read-out: Activity.
Series [8] in a line: (§3) Phototoxicity against 50 mW/cm^2 white light irradiated Vero cells assessed as viable cells pretreated at 0.1 uM after 48 hrs by MTT assay. The conditions noted are these: chlorocebus sabaeus, Vero cells; read-out: Activity. The series is classed as cell-based.
A short description of series [9]: (§4) Phototoxicity against 50 mW/cm^2 white light irradiated Vero cells assessed as viable cells assessed as viable cells pretreated at 0.5 uM after 48 hrs by MTT assay. The series is classed as cell-based. The conditions noted are these: chlorocebus sabaeus, Vero cells; read-out: Activity.
Series [10] can be described thus: (§5) Phototoxicity against 50 mW/cm^2 white light irradiated Vero cells assessed as viable cells pretreated at 1.0 uM after 48 hrs by MTT assay. In kind it is cell-based. Conditions: chlorocebus sabaeus, Vero cells; read-out: Activity.
A short description of series [11]: (§6) Phototoxicity against 50 mW/cm^2 white light irradiated Vero cells assessed as viable cells pretreated at 2.5 uM after 48 hrs by MTT assay. Conditions: chlorocebus sabaeus, Vero cells; read-out: Activity. In kind it is cell-based.
For series [12], the system named is Human alphaherpesvirus 1. Nature of the series: Virucidal activity against HSV1 at 0.02 uM. The series is classed as functional. The conditions noted are these: for inhibition at 0.02 µM: Human alphaherpesvirus 1.
For series [13], the system named is Human alphaherpesvirus 1. Nature of the series: (§7) Virucidal effect against HSV1 pretreated at 0.02 uM after 5 mins of irradiation with 50 mW/cm^2 white light. The series is classed as functional. The conditions noted are these: for inhibition at 0.02 µM: Human alphaherpesvirus 1, light or radiation study.
The test system of series [14] is Human alphaherpesvirus 1. The series is described as §7. The conditions noted are these: for inhibition at 0.02 µM: Human alphaherpesvirus 1, light or radiation study. In kind it is functional. The source holds these as a separate data set.
Series [15] relates to Human alphaherpesvirus 1. As to the kind of experiment: Inhibition of HSV1 infected Vero cells treated at 0.02 uM assessed virus yield under dark condition. The series is classed as functional. The conditions noted are these: Human alphaherpesvirus 1, Vero.
In series [16] the test system is Human alphaherpesvirus 1. Nature of the series: Inhibition of HSV1 infected Vero cells treated at 0.02 uM assessed virus yield after 2 hrs under dark condition. The series is classed as functional. The conditions noted are these: Human alphaherpesvirus 1, Vero.
Series [17] has as its system Human alphaherpesvirus 1. Nature of the series: Inhibition of HSV1 infected Vero cells treated at 0.02 uM assessed virus yield after 4 hrs under dark condition. The series is classed as functional. The conditions noted are these: Human alphaherpesvirus 1, Vero.
Series [18] deals with Human alphaherpesvirus 1. As to the kind of experiment: Inhibition of HSV1 infected Vero cells treated at 0.02 uM assessed virus yield after 16 hrs under dark condition. The series is classed as functional. The conditions noted are these: Human alphaherpesvirus 1, Vero.
Series [19] deals with Human alphaherpesvirus 1. As to the kind of experiment: Inhibition of HSV1 infected Vero cells treated at 0.02 uM assessed virus yield irradiated with 50 mW/ cm^2 white light for 15 mins. The conditions noted are these: Human alphaherpesvirus 1, Vero, light or radiation study, 0.25 h. The series is classed as functional.
In series [20] the test system is Human alphaherpesvirus 1. Nature of the series: Inhibition of HSV1 infected Vero cells treated at 0.02 uM assessed virus yield after 2 hrs of irradiated with 50 mW/ cm^2 white light for 15 mins. The series is classed as functional. Conditions: Human alphaherpesvirus 1, Vero, light or radiation study.
Series [21] concerns Human alphaherpesvirus 1. Nature of the series: Inhibition of HSV1 infected Vero cells treated at 0.02 uM assessed virus yield after 4 hrs of irradiated with 50 mW/ cm^2 white light for 15 mins. In kind it is functional. The conditions noted are these: Human alphaherpesvirus 1, Vero, light or radiation study.
Series [22] has as its system Human alphaherpesvirus 1. Nature of the series: Inhibition of HSV1 infected Vero cells treated at 0.02 uM assessed virus yield after 16 hrs of irradiated with 50 mW/ cm^2 white light for 15 mins. The series is classed as functional. The conditions noted are these: Human alphaherpesvirus 1, Vero, light or radiation study.
Series [23] has as its system Vero. Described as §1. The series is classed as cell-based. Conditions: chlorocebus sabaeus, vero, 48 h, 0.01 µM.
The test system of series [24] is Vero. Described as §2. The series is classed as cell-based. Conditions: chlorocebus sabaeus, vero, 48 h, 0.05 µM.
The subject of series [25] is Vero. The series is described as §3. The series is classed as cell-based. The conditions noted are these: chlorocebus sabaeus, vero, 48 h, 0.1 µM.
Series [26] deals with Vero. The description is as §4. The series is classed as cell-based. Conditions: chlorocebus sabaeus, vero, 48 h, 0.5 µM.
The test system of series [27] is Vero. The series is described as §5. Conditions: chlorocebus sabaeus, vero, 48 h, 1 µM. In kind it is cell-based.
For series [28], the system named is Vero. The series is described as §6. In kind it is cell-based. The conditions noted are these: chlorocebus sabaeus, vero, 48 h, 2.5 µM.

By inhibition is commonly meant the share of the control response that was lost under treatment. In the case of `O=C(OC[C@H]1OC(O)[C@H](O)[C@@H](O)[C@H]1O)c1ccc(-c2c3nc(c(-c4ccncc4)c4ccc([nH]4)c(-c4ccncc4)c4nc(c(-c5ccncc5)c5ccc2[nH]5)C=C4)C=C3)cc1` (some centres undefined), the Activity in series [1] is 100%; in [2], 98%; in [3], 97%; in series [4] it was 88%; in series [5] it was 83%. Besides, the viability at 48 h, 0.01 µM in series [6] is 108%. Also, in [7], the viability at 48 h, 0.05 µM was found to be 98.4%. For the same compound, in [8], the viability at 48 h, 0.1 µM worked out at 92.3%. In [9], the viability at 48 h, 0.5 µM was 55.5%. Also, the viability at 48 h, 1 µM in [10] is 27.2%. Besides, in [11], the viability at 48 h, 2.5 µM amounted to 4.4%. In addition, the inhibition at 0.02 µM in [12] was determined as 28.6%; in [13], 44.5%; in [14], 85.6%; in [15] it was 0%; in [16], 0%; in series [17] it was 0%. Further, the inhibition at 0.02 µM came out at 45.8% in [18]; 71.1% in series [19]; 79.2% in series [20]; 93.6% in series [21]; 95.7% in [22].

On to `C[n+]1ccc(-c2c3nc(c(-c4cc[n+](C)cc4)c4ccc([nH]4)c(-c4cc[n+](C)cc4)c4nc(c(-c5ccc(C(=O)O)cc5)c5ccc2[nH]5)C=C4)C=C3)cc1.[I-].[I-].[I-]`, for which the Activity was determined as 98% in [1]; 98% in [2]; 98% in series [3]; 98% in [4]; 97% in series [5]. The viability at 48 h, 0.01 µM in [6] amounted to 110%. Besides, the viability at 48 h, 0.05 µM in series [7] was 98.6%. The viability at 48 h, 0.1 µM in [8] came to 96.7%. Moreover, the viability at 48 h, 0.5 µM in [9] is 89.2%. The viability at 48 h, 1 µM in series [10] came to 76.6%. Further, in series [11], the viability at 48 h, 2.5 µM was found to be 56.3%. The inhibition at 0.02 µM in series [12] is 16.7%; in [13], 50%; in [14] it was 63.3%.

As a reminder, the Inhibition is the change of the read-out against control, counted positive when it falls. With `CC1(C)O[C@H]2[C@@H](O1)[C@@H](COC(=O)c1ccc(-c3c4nc(c(-c5ccncc5)c5ccc([nH]5)c(-c5ccncc5)c5nc(c(-c6ccncc6)c6ccc3[nH]6)C=C5)C=C4)cc1)O[C@@H]1OC(C)(C)O[C@@H]12`, the Activity in series [1] worked out at 98%; in series [2] it was 98%; in [3], 98%; in series [4], 94%; in [5], 93%; in [23] it was 100.8%. Besides, the Activity came out at 96.4% in [24]; 93.9% in series [25]; 36.4% in series [26]; 14.4% in series [27]; 6.4% in [28]. Further, the Inhibition in [12] was determined as 27.7%; in series [13] it was 36.4%; in [14], 78.9%.

For `O=C(O)c1ccc(-c2c3nc(c(-c4ccncc4)c4ccc([nH]4)c(-c4ccncc4)c4nc(c(-c5ccncc5)c5ccc2[nH]5)C=C4)C=C3)cc1` [PORPHIRIN], the Activity in [1] amounted to 99%; in series [2] it was 99%; in series [3], 96%; in series [4], 92%; in series [5], 87%. Further, in [6], the viability at 48 h, 0.01 µM was 105%. For the same compound, the viability at 48 h, 0.05 µM in [7] stood at 95.7%. The viability at 48 h, 0.1 µM in series [8] was found to be 90.6%. Moreover, the viability at 48 h, 0.5 µM in series [9] came to 76.6%. The viability at 48 h, 1 µM in series [10] was 39.7%. Also, the viability at 48 h, 2.5 µM in series [11] stood at 11.4%. Also, the inhibition at 0.02 µM in series [12] is 8.9%; in series [13], 52.9%; in series [14], 90.5%.
